Measurements published in US8586555B2, “Immunomodulatory compositions, formulations, and methods for use thereof” (Dynavax Technologies Corporation, priority 2001, dated 2013).

Assays:
Format in all cases: cell-based
[1] = tested on: human peripheral blood mononuclear cells (hPBMC); test: human PBMC assay, Example 6
How it was run: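 PBMCs at 2×10^6 cells/mL in RPMI with 10% human AB serum, 37° C., given 100% phosphorothioate oligonucleotides at 20 μg/ml, alone or with PLGA microcarriers at 250 μg/ml, added together or premixed 15 min. After 24 h, supernatant IFN-γ and IFN-α measured by ELISA in duplicate.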

[2] = tested on: human peripheral blood mononuclear cells (hPBMC); test: human PBMC assay, Example 4 (oligos and PLGA premixed 15 minutes); conditions: for IFN-α Mean / IFN-γ Mean: mean of donors 28044, 28045
Description: (§1) Hexameric oligonucleotides were tested for immunomodulatory activity alone and complexed with lactic acid/glycolic acid copolymer microcarrier beads using a human peripheral blood mononuclear cells (hPBMC) assay. Peripheral blood was collected from healthy volunteers by venipuncture using heparinized syringes. Blood was layered onto a FICOLL® (Amersham Pharmacia Biotech) cushion and centrifuged. hPBMCs, located at the FICOLL® interface, were collected, then washed twice with cold phosphate buffered saline (PBS). The cells were resuspended and cultured in 48 well plates at 2×10^6 cells/mL at 37° C. in RPMI 1640 with 10% heat-inactivated human AB serum plus 50 units/mL penicillin, 50 μg/mL streptomycin, 300 μg/mL glutamine, 1 mM sodium pyruvate, and 1×MEM non-essential amino acids (NEAA).
(§2) Oligonucleotides were tested as single agents, or in combination with PLGA microspheres (unmodified or cationic). All oligonucleotides contained 100% phosphorothioate linkages and were tested at 20 μg/ml. The PLGA microcarriers were used at 250 μg/ml. When oligos were tested with PLGA microcarriers, the oligo and the microcarriers were added at the same time to the culture. The cells were cultured in the in the presence of test samples for 24 hours, then cell-free medium was collected from each well and assayed for IFN-γ and IFN-α concentration. Two different oligonucleotides were used as controls: a first oligonucleotide known to have immunostimulatory activity (a 22mer oligonucleotide containing an ISS (“ISS+,” 5′-[…]-3′(SEQ ID NO:2)) and a second oligonucleotide of similar sequence but lacking immunostimulatory activity (“ISS−,” 5′-[…]-3′ (SEQ ID NO:1)). SAC (PANSORBIN® CalBiochem, 1/5000 dilution) and a untreated culture were used as additional positive and negative controls, respectively. SAC contains Staph. aureus (Cowan I) cell material. All samples were assayed in duplicate.
(§3) IFN-γ and IFN-α were assayed using CYTOSCREEN™ ELISA kits from BioSource International, Inc., according to the manufacturer's instructions.
Additional hexameric and pentameric oligonucleotides were tested for immunomodulatory activity in the PBMC assay. Oligonucleotides 6-6 (5′-TCGAGA-3′), 6-8 (5′-GTCGAC-3′), 6-9 (5′-GTCGTT-3′), 6-2 (5′-TCGTTT-3′), 6-3 (5′-TTCGTT-3′), 6-4 (5′-TTTCGT-3′), 5-1 (5′-TCGTC-3′), and 5-2 (5′-TCGTT-3′) were tested alone or in combination with cationic PLGA as described in Example 3 except that the oligos and PLGA were premixed for 15 minutes room temperature before addition to the cultures. The test articles were assayed using PBMC isolated from donors 28044 and 28045.

[3] = tested on: human peripheral blood mononuclear cells (hPBMC); test: human PBMC assay, Example 7 (oligo 20 μg/ml, cPLGA 100 μg/ml); conditions: for IFN-α Mean / IFN-γ Mean: mean of donors 28115-28118
How it was run: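 hPBMC from healthy donors at 2×10^6 cells/mL in RPMI 1640 + 10% human AB serum, 37° C; phosphorothioate oligos at 20 μg/ml, alone or premixed 15 min at room temperature with cationic PLGA microspheres at 100 μg/ml. IFN-γ and IFN-α in supernatants measured by ELISA after 24 h, duplicates.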

[4] = tested on: human peripheral blood mononuclear cells (hPBMC); test: human PBMC assay, Example 3 (oligo and PLGA added at the same time, 48 well plates); conditions: for IFN-α / IFN-γ: oligo 20 μg/ml, PLGA 250 μg/ml, 24 hours; for IFN-α Mean / IFN-γ Mean: mean of donors 28033, 28034
Description: as §1, §2, §3

[5] = tested on: human peripheral blood mononuclear cells (hPBMC); test: human PBMC assay, Example 5 (96 well plates, premixed); conditions: for IFN-α Mean / IFN-γ Mean: mean of donors 28051-28054
Description: as §1, §2, §3
The immunomodulatory activity of the oligonucleotides used in Examples 3 and 4 was confirmed with the human PBMC assay using PBMCs from an additional four donors (donors 28051-28054). Oligonucleotides were tested alone or in combination with cationic PLGA as described in Example 3, except that 96 well plates were used instead of 48 well plates and the oligonucleotides were premixed with the cationic microspheres at room temperature for 15 minutes before they were added to the culture, rather than being added simultaneously to the culture.

“5′-TGACTGTGAACCTTAGAGATGA-3′ (DNA, all phosphorothioate, methylation of C not given here) [ISS−, reference compound]” was tested, and the IFN-α ([1]; donor 28075) was 41 pg/mL, the IFN-γ ([1]; donor 28075) was 15 pg/mL and the IFN-α ([1]; donor 28076) was 23 pg/mL. The IFN-γ ([1]; donor 28076) was 15 pg/mL, the IFN-α ([1]; donor 28077) was 54 pg/mL and the IFN-γ ([1]; donor 28077) was 12 pg/mL. The IFN-α ([1]; donor 28078) was 27 pg/mL, the IFN-γ ([1]; donor 28078) was 16 pg/mL and the “IFN-α Mean” value ([1]; mean of donors 28075-28078) was 36 pg/mL. For the same substance, the “IFN-γ Mean” value ([1]; mean of donors 28075-28078) was 15 pg/mL, the “IFN-α Mean” value ([1]; mean of volunteers 154-157) was 0 pg/mL and the “IFN-γ Mean” value ([1]; mean of volunteers 154-157) was 43 pg/mL. The IFN-α ([1]; volunteer 154) was 0 pg/mL, the IFN-γ ([1]; volunteer 154) was 0 pg/mL and the IFN-α ([1]; volunteer 155) was 0 pg/mL. It also gave an IFN-γ ([1]; volunteer 155) of 17 pg/mL, an IFN-α ([1]; volunteer 156) of 0 pg/mL and an IFN-γ ([1]; volunteer 156) of 58 pg/mL. It also gave an IFN-α ([1]; volunteer 157) of 0 pg/mL, an IFN-γ ([1]; volunteer 157) of 98 pg/mL and an IFN-α ([2]; donor 28044) of 0 pg/mL. It also gave an IFN-γ ([2]; donor 28044) of 410 pg/mL, an IFN-α ([2]; donor 28045) of 0 pg/mL and an IFN-γ ([2]; donor 28045) of 51 pg/mL. For the same substance, the “IFN-α Mean” value [2] was 0 pg/mL, the “IFN-γ Mean” value [2] was 231 pg/mL and the IFN-α ([3]; donor 28115) was 0 pg/mL. For the same substance, the IFN-γ ([3]; donor 28115) was 20 pg/mL, the IFN-α ([3]; donor 28116) was 0 pg/mL and the IFN-γ ([3]; donor 28116) was 22 pg/mL. For the same substance, the IFN-α ([3]; donor 28117) was 0 pg/mL, the IFN-γ ([3]; donor 28117) was 334 pg/mL and the IFN-α ([3]; donor 28118) was 0 pg/mL. For the same substance, the IFN-γ ([3]; donor 28118) was 14 pg/mL, the “IFN-α Mean” value [3] was 0 pg/mL and the “IFN-γ Mean” value [3] was 98 pg/mL. The IFN-α ([4]; donor 28033) was 0 pg/mL, the IFN-γ ([4]; donor 28033) was 3 pg/mL and the IFN-α ([4]; donor 28034) was 31 pg/mL. The IFN-γ ([4]; donor 28034) was 8 pg/mL, the “IFN-α Mean” value [4] was 15 pg/mL and the “IFN-γ Mean” value [4] was 5 pg/mL. For the same substance, the IFN-α ([5]; donor 28051) was 0 pg/mL, the IFN-γ ([5]; donor 28051) was 5 pg/mL and the IFN-α ([5]; donor 28052) was 3 pg/mL. The IFN-γ ([5]; donor 28052) was 2 pg/mL, the IFN-α ([5]; donor 28053) was 1 pg/mL and the IFN-γ ([5]; donor 28053) was 3 pg/mL. For the same substance, the IFN-α ([5]; donor 28054) was 5 pg/mL, the IFN-γ ([5]; donor 28054) was 2 pg/mL and the “IFN-α Mean” value [5] was 2 pg/mL. The “IFN-γ Mean” value [5] was 3 pg/mL.
For “5′-TGACTGTGAACGTTCGAGATGA-3′ [ISS+, reference compound]”, the IFN-α ([1]; donor 28075) was 0 pg/mL, the IFN-γ ([1]; donor 28075) was 48 pg/mL and the IFN-α ([1]; donor 28076) was 73 pg/mL. It also gave an IFN-γ ([1]; donor 28076) of 76 pg/mL, an IFN-α ([1]; donor 28077) of 54 pg/mL and an IFN-γ ([1]; donor 28077) of 15 pg/mL. The IFN-α ([1]; donor 28078) was 94 pg/mL, the IFN-γ ([1]; donor 28078) was 72 pg/mL and the “IFN-α Mean” value ([1]; mean of donors 28075-28078) was 55 pg/mL. For the same substance, the “IFN-γ Mean” value ([1]; mean of donors 28075-28078) was 53 pg/mL, the “IFN-α Mean” value ([1]; mean of volunteers 154-157) was 12 pg/mL and the “IFN-γ Mean” value ([1]; mean of volunteers 154-157) was 317 pg/mL. The IFN-α ([1]; volunteer 154) was 31 pg/mL, the IFN-γ ([1]; volunteer 154) was 211 pg/mL and the IFN-α ([1]; volunteer 155) was 0 pg/mL. It also gave an IFN-γ ([1]; volunteer 155) of 131 pg/mL, an IFN-α ([1]; volunteer 156) of 15 pg/mL and an IFN-γ ([1]; volunteer 156) of 86 pg/mL. The IFN-α ([1]; volunteer 157) was 0 pg/mL, the IFN-γ ([1]; volunteer 157) was 840 pg/mL and the IFN-α ([2]; donor 28044) was 401 pg/mL. It also gave an IFN-γ ([2]; donor 28044) of 2180 pg/mL, an IFN-α ([2]; donor 28045) of 39 pg/mL and an IFN-γ ([2]; donor 28045) of 669 pg/mL. The “IFN-α Mean” value [2] was 220 pg/mL, the “IFN-γ Mean” value [2] was 1425 pg/mL and the IFN-α ([3]; donor 28115) was 54 pg/mL. It also gave an IFN-γ ([3]; donor 28115) of 156 pg/mL, an IFN-α ([3]; donor 28116) of 29 pg/mL and an IFN-γ ([3]; donor 28116) of 125 pg/mL. The IFN-α ([3]; donor 28117) was 17 pg/mL, the IFN-γ ([3]; donor 28117) was 497 pg/mL and the IFN-α ([3]; donor 28118) was 0 pg/mL. The IFN-γ ([3]; donor 28118) was 46 pg/mL, the “IFN-α Mean” value [3] was 25 pg/mL and the “IFN-γ Mean” value [3] was 206 pg/mL. For the same substance, the IFN-α ([4]; donor 28033) was 28 pg/mL, the IFN-γ ([4]; donor 28033) was 99 pg/mL and the IFN-α ([4]; donor 28034) was 106 pg/mL. The IFN-γ ([4]; donor 28034) was 223 pg/mL, the “IFN-α Mean” value [4] was 67 pg/mL and the “IFN-γ Mean” value [4] was 161 pg/mL. For the same substance, the IFN-α ([5]; donor 28051) was 12 pg/mL, the IFN-γ ([5]; donor 28051) was 66 pg/mL and the IFN-α ([5]; donor 28052) was 28 pg/mL. It also gave an IFN-γ ([5]; donor 28052) of 20 pg/mL, an IFN-α ([5]; donor 28053) of 12 pg/mL and an IFN-γ ([5]; donor 28053) of 72 pg/mL. The IFN-α ([5]; donor 28054) was 12 pg/mL, the IFN-γ ([5]; donor 28054) was 23 pg/mL and the “IFN-α Mean” value [5] was 16 pg/mL. The “IFN-γ Mean” value [5] was 45 pg/mL.
